Data reported in ChEMBL document CHEMBL4270577, “Synthesis, anticancer activity and molecular modeling studies of 1,2,4-triazole derivatives as EGFR inhibitors” (Eur J Med Chem, 2018).

Columns and labels:
[1] = system: CCRF-CEM; assay: Growth inhibition of human CCRF-CEM cells at 10 uM incubated for 48 hrs by sulforhodamine B assay relative to control; assay type: functional; settings: read-out: GI
[2] = system: HL-60(TB); assay: Growth inhibition of human HL-60(TB) cells at 10 uM incubated for 48 hrs by sulforhodamine B assay relative to control; assay type: functional; settings: HL-60, 48 h, read-out: GI
[3] = system: K562; assay: Growth inhibition of human K562 cells at 10 uM incubated for 48 hrs by sulforhodamine B assay relative to control; assay type: functional; settings: K562, 48 h, read-out: GI
[4] = system: MOLT-4; assay: Growth inhibition of human MOLT4 cells at 10 uM incubated for 48 hrs by sulforhodamine B assay relative to control; assay type: functional; settings: MOLT-4, 48 h, read-out: GI
[5] = system: HOP-62; assay: Growth inhibition of human HOP62 cells at 10 uM incubated for 48 hrs by sulforhodamine B assay relative to control; assay type: functional; settings: HOP-62, 48 h, read-out: GI
[6] = system: HOP-92; assay: Growth inhibition of human HOP92 cells at 10 uM incubated for 48 hrs by sulforhodamine B assay relative to control; assay type: functional; settings: HOP-92, 48 h, read-out: GI
[7] = system: NCI-H226; assay: Growth inhibition of human NCI-H226 cells at 10 uM incubated for 48 hrs by sulforhodamine B assay relative to control; assay type: functional; settings: NCI-H226, 48 h, read-out: GI
[8] = system: NCI-H23; assay: Growth inhibition of human NCI-H23 cells at 10 uM incubated for 48 hrs by sulforhodamine B assay relative to control; assay type: functional; settings: NCI-H23, 48 h, read-out: GI
[9] = system: NCI-H322M; assay: Growth inhibition of human NCI-H322M cells at 10 uM incubated for 48 hrs by sulforhodamine B assay relative to control; assay type: functional; settings: read-out: GI
[10] = system: NCI-H460; assay: Growth inhibition of human NCI-H460 cells at 10 uM incubated for 48 hrs by sulforhodamine B assay relative to control; assay type: functional; settings: NCI-H460, 48 h, read-out: GI
[11] = system: NCI-H522; assay: Growth inhibition of human NCI-H522 cells at 10 uM incubated for 48 hrs by sulforhodamine B assay relative to control; assay type: functional; settings: NCI-H522, 48 h, read-out: GI
[12] = system: HCT-116; assay: Growth inhibition of human HCT116 cells at 10 uM incubated for 48 hrs by sulforhodamine B assay relative to control; assay type: functional; settings: HCT-116, 48 h, read-out: GI
[13] = system: SW-620; assay: Growth inhibition of human SW620 cells at 10 uM incubated for 48 hrs by sulforhodamine B assay relative to control; assay type: functional; settings: SW-620, 48 h, read-out: GI
[14] = system: SF-295; assay: Growth inhibition of human SF295 cells at 10 uM incubated for 48 hrs by sulforhodamine B assay relative to control; assay type: functional; settings: SF-295, 48 h, read-out: GI
[15] = system: SF-539; assay: Growth inhibition of human SF539 cells at 10 uM incubated for 48 hrs by sulforhodamine B assay relative to control; assay type: functional; settings: SF-539, 48 h, read-out: GI
[16] = system: SNB-19; assay: Growth inhibition of human SNB19 cells at 10 uM incubated for 48 hrs by sulforhodamine B assay relative to control; assay type: functional; settings: SNB-19, 48 h, read-out: GI
[17] = system: U-251; assay: Growth inhibition of human U251 cells at 10 uM incubated for 48 hrs by sulforhodamine B assay relative to control; assay type: functional; settings: U-251, 48 h, read-out: GI
[18] = system: M14; assay: Growth inhibition of human M14 cells at 10 uM incubated for 48 hrs by sulforhodamine B assay relative to control; assay type: functional; settings: M14, 48 h, read-out: GI
[19] = system: UACC-62; assay: Growth inhibition of human UACC62 cells at 10 uM incubated for 48 hrs by sulforhodamine B assay relative to control; assay type: functional; settings: UACC-62, 48 h, read-out: GI
[20] = system: OVCAR-4; assay: Growth inhibition of human OVCAR4 cells at 10 uM incubated for 48 hrs by sulforhodamine B assay relative to control; assay type: functional; settings: OVCAR-4, 48 h, read-out: GI
[21] = system: NCI/ADR-RES; assay: Growth inhibition of human NCI/ADR-RES cells at 10 uM incubated for 48 hrs by sulforhodamine B assay relative to control; assay type: functional; settings: read-out: GI
[22] = system: 786-0; assay: Growth inhibition of human 786-0 cells at 10 uM incubated for 48 hrs by sulforhodamine B assay relative to control; assay type: functional; settings: 786-0, 48 h, read-out: GI
[23] = system: ACHN; assay: Growth inhibition of human ACHN cells at 10 uM incubated for 48 hrs by sulforhodamine B assay relative to control; assay type: functional; settings: read-out: GI
[24] = system: RXF 393; assay: Growth inhibition of human RXF393 cells at 10 uM incubated for 48 hrs by sulforhodamine B assay relative to control; assay type: functional; settings: RXF 393, 48 h, read-out: GI
[25] = system: SN12C; assay: Growth inhibition of human SN12C cells at 10 uM incubated for 48 hrs by sulforhodamine B assay relative to control; assay type: functional; settings: read-out: GI
[26] = system: PC-3; assay: Growth inhibition of human PC3 cells at 10 uM incubated for 48 hrs by sulforhodamine B assay relative to control; assay type: functional; settings: PC-3, 48 h, read-out: GI
[27] = system: DU-145; assay: Growth inhibition of human DU145 cells at 10 uM incubated for 48 hrs by sulforhodamine B assay relative to control; assay type: functional; settings: DU-145, 48 h, read-out: GI
[28] = system: MCF7; assay: Growth inhibition of human MCF7 cells at 10 uM incubated for 48 hrs by sulforhodamine B assay relative to control; assay type: functional; settings: MCF7, 48 h, read-out: GI
[29] = system: MDA-MB-231; assay: Growth inhibition of human MDA-MB-231/ATCC cells at 10 uM incubated for 48 hrs by sulforhodamine B assay relative to control; assay type: functional; settings: MDA-MB-231, 48 h, read-out: GI
[30] = system: MDA-MB-468; assay: Growth inhibition of human MDA-MB-468 cells at 10 uM incubated for 48 hrs by sulforhodamine B assay relative to control; assay type: functional; settings: MDA-MB-468, 48 h, read-out: GI
[31] = system: PANC-1; assay: Antiproliferative activity against human PANC1 cells after 48 hrs by propidium iodide staining-based fluorometric analysis; assay type: functional, cell-based; settings: PANC-1, 48 h
[32] = target: Epidermal growth factor receptor (Homo sapiens, UniProt P00533); assay: Inhibition of His6-tagged recombinant EGFR cytoplasmic domain (645 to 1186 residues) (unknown origin) expressed in baculovirus infected Sf9 insect cells preincubated for 10 mins followed by ATP-MgCl2 addition and measured after 1 hr by DELFIA/time-resolved fluorometric analysis
[33] = system: IGROV-1; assay: Growth inhibition of human IGROV1 cells at 10 uM incubated for 48 hrs by sulforhodamine B assay relative to control; assay type: functional; settings: IGROV-1, 48 h, read-out: GI
[34] = system: HCC 2998; assay: Growth inhibition of human HCC2998 cells at 10 uM incubated for 48 hrs by sulforhodamine B assay relative to control; assay type: functional; settings: HCC 2998, 48 h, read-out: GI
[35] = system: Malme-3M; assay: Growth inhibition of human MALME-3M cells at 10 uM incubated for 48 hrs by sulforhodamine B assay relative to control; assay type: functional; settings: read-out: GI

Epidermal growth factor receptor, sequence (P00533 whole entry, the tested form may be a part): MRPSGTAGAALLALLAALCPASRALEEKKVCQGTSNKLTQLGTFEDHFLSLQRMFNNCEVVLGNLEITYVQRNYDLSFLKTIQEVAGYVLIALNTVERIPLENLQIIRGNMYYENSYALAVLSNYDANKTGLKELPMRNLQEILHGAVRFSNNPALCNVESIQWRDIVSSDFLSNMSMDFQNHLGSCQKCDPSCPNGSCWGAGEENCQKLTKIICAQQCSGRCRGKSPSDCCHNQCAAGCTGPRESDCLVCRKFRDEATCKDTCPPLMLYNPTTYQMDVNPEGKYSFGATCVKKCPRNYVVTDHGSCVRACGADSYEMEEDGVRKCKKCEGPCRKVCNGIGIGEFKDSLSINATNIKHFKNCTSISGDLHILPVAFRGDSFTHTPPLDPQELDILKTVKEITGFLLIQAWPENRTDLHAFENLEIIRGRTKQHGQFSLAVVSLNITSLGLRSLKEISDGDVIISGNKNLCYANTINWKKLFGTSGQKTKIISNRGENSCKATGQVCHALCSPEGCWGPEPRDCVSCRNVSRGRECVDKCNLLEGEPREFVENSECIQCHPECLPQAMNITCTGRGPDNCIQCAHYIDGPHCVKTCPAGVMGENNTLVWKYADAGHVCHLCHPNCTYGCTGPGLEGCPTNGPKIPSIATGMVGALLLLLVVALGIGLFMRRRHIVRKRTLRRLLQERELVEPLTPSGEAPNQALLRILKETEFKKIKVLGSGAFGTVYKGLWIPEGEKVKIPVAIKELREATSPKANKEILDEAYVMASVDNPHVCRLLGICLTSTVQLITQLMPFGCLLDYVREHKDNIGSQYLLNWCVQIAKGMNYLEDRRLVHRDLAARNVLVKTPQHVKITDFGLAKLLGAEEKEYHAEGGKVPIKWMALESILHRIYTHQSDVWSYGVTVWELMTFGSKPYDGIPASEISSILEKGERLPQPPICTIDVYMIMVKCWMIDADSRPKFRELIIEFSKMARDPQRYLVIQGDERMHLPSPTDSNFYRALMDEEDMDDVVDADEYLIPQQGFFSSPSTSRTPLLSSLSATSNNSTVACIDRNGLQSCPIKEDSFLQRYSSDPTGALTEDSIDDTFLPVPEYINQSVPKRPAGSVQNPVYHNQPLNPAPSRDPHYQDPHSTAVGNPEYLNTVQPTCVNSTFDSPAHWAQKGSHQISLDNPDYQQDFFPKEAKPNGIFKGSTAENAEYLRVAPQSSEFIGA

## COc1cc(-c2nc3sc(-c4ccccc4)cn3n2)cc(OC)c1OC
[1]
  inhibition of growth at 10 µM: 49%
[2]
  inhibition of growth at 10 µM: 37%
[3]
  inhibition of growth at 10 µM: 39%
[4]
  inhibition of growth at 10 µM: 44%
[5]
  inhibition of growth at 10 µM: 15%
[6]
  inhibition of growth at 10 µM: 50%
[7]
  inhibition of growth at 10 µM: 23%
[8]
  inhibition of growth at 10 µM: 17%
[9]
  inhibition of growth at 10 µM: 7%
[10]
  inhibition of growth at 10 µM: 18%
[11]
  inhibition of growth at 10 µM: 30%
[12]
  inhibition of growth at 10 µM: 40%
[13]
  inhibition of growth at 10 µM: 6%
[14]
  inhibition of growth at 10 µM: 16%
[15]
  inhibition of growth at 10 µM: 15%
[16]
  inhibition of growth at 10 µM: 10%
[17]
  inhibition of growth at 10 µM: 32%
[18]
  inhibition of growth at 10 µM: 25%
[19]
  inhibition of growth at 10 µM: 31%
[20]
  inhibition of growth at 10 µM: 17%
[21]
  inhibition of growth at 10 µM: 39%
[22]
  inhibition of growth at 10 µM: 14%
[23]
  inhibition of growth at 10 µM: 15%
[24]
  inhibition of growth at 10 µM: 17%
[25]
  inhibition of growth at 10 µM: 19%
[26]
  inhibition of growth at 10 µM: 53%
[27]
  inhibition of growth at 10 µM: 9%
[28]
  inhibition of growth at 10 µM: 23%
[29]
  inhibition of growth at 10 µM: 41%
[30]
  inhibition of growth at 10 µM: 35%
[31]
  IC50: 4.9 µM
[32]
  IC50: 2.8 µM

## c1ccc(-c2nc3sc(-c4ccccc4)cn3n2)cc1
[1]
  inhibition of growth at 10 µM: 13%
[2]
  inhibition of growth at 10 µM: 21%
[3]
  inhibition of growth at 10 µM: 11%
[4]
  inhibition of growth at 10 µM: 11%
[5]
  inhibition of growth at 10 µM: 33%
[6]
  inhibition of growth at 10 µM: 25%
[7]
  inhibition of growth at 10 µM: 27%
[8]
  inhibition of growth at 10 µM: 16%
[9]
  inhibition of growth at 10 µM: 11%
[10]
  inhibition of growth at 10 µM: 6%
[11]
  inhibition of growth at 10 µM: 19%
[12]
  inhibition of growth at 10 µM: 11%
[13]
  inhibition of growth at 10 µM: 5%
[16]
  inhibition of growth at 10 µM: 11%
[17]
  inhibition of growth at 10 µM: 6%
[18]
  inhibition of growth at 10 µM: 13%
[19]
  inhibition of growth at 10 µM: 33%
[33]
  inhibition of growth at 10 µM: 43%
[20]
  inhibition of growth at 10 µM: 23%
[21]
  inhibition of growth at 10 µM: 14%
[23]
  inhibition of growth at 10 µM: 14%
[24]
  inhibition of growth at 10 µM: 9%
[25]
  inhibition of growth at 10 µM: 20%
[26]
  inhibition of growth at 10 µM: 37%
[27]
  inhibition of growth at 10 µM: 15%
[28]
  inhibition of growth at 10 µM: 61%
[29]
  inhibition of growth at 10 µM: 35%
[30]
  inhibition of growth at 10 µM: 14%
[31]
  IC50: 7.2 µM
[32]
  IC50: 9.8 µM

## COc1ccc(-c2nc3sc(-c4ccc(Cl)cc4)cn3n2)cc1
[1]
  inhibition of growth at 10 µM: 30.5%
[3]
  inhibition of growth at 10 µM: 38.5%
[4]
  inhibition of growth at 10 µM: 17.4%
[5]
  inhibition of growth at 10 µM: 60.4%
[6]
  inhibition of growth at 10 µM: 79.5%
[7]
  inhibition of growth at 10 µM: 49.9%
[8]
  inhibition of growth at 10 µM: 41.5%
[9]
  inhibition of growth at 10 µM: 82.2%
[10]
  inhibition of growth at 10 µM: -39%
[11]
  inhibition of growth at 10 µM: 39%
[34]
  inhibition of growth at 10 µM: 21.4%
[12]
  inhibition of growth at 10 µM: -16%
[13]
  inhibition of growth at 10 µM: 40.4%
[14]
  inhibition of growth at 10 µM: 75.8%
[15]
  inhibition of growth at 10 µM: 84.6%
[16]
  inhibition of growth at 10 µM: -1.95%
[17]
  inhibition of growth at 10 µM: -67.9%
[35]
  inhibition of growth at 10 µM: 49.2%
[18]
  inhibition of growth at 10 µM: 9%
[19]
  inhibition of growth at 10 µM: 31.4%
[33]
  inhibition of growth at 10 µM: 92.9%
[20]
  inhibition of growth at 10 µM: -63.3%
[21]
  inhibition of growth at 10 µM: 54.4%
[22]
  inhibition of growth at 10 µM: -75.8%
[23]
  inhibition of growth at 10 µM: -74%
[24]
  inhibition of growth at 10 µM: 41%
[25]
  inhibition of growth at 10 µM: 94.7%
[26]
  inhibition of growth at 10 µM: 41.9%
[27]
  inhibition of growth at 10 µM: 19.3%
[28]
  inhibition of growth at 10 µM: 51.1%
[29]
  inhibition of growth at 10 µM: 86.7%
[30]
  inhibition of growth at 10 µM: 66.6%
[31]
  IC50: 2.8 µM
[32]
  IC50: 1.5 µM
